Test results as given in DBAASP.
≈ marks a conversion by molar mass, not a printed value. Where “and” joins values, the source holds several entries; their conditions need not be identical. Equal entries are not always repeated. Each block holds one compound with its values, some of them ahead of it.

Columns and labels:
Experiment in all cases: ≥ marks a high value that may be exact or a test limit, other limits are often not marked, values filed in µg/mL are converted to µM
Saccharomyces cerevisiae = test system: Saccharomyces cerevisiae
[1] = test system: Escherichia coli ATCC 35218
[2] = test system: Candida albicans ATCC 90028
[3] = test system: Legionella longbeachae ATCC 33484
[4] = test system: Staphylococcus aureus ATCC 25923
[5] = test system: Enterococcus faecalis ATCC 29212
[6] = test system: Staphylococcus aureus ATCC BAA-44
Listeria ivanovii = test system: Listeria ivanovii
[7] = test system: Streptococcus pyogenes ATCC 19615
[8] = test system: Legionella pneumophila Paris
Escherichia coli ML-35p = test system: Escherichia coli ML-35p
Helicobacter pylori = test system: Helicobacter pylori
[9] = test system: Staphylococcus aureus ATCC 43300
[10] = test system: Salmonella enterica subsp. enterica serovar Enteritidis
Bacillus megaterium = test system: Bacillus megaterium
[11] = test system: Staphylococcus aureus ST1065
[12] = test system: Legionella pneumophila ATCC 33155
[13] = test system: Escherichia coli ATCC 25922
[14] = test system: Pseudomonas aeruginosa ATCC 27853
[15] = test system: Klebsiella pneumoniae ATCC 13883
[16] = test system: Acinetobacter baumannii ATCC 19606
[17] = test system: Legionella feeleii ATCC 35072
[18] = test system: Pseudomonas aeruginosa NCTC 13437
[19] = test system: Pseudomonas aeruginosa PAO1
[20] = test system: Klebsiella pneumoniae NCTC 13368
[21] = test system: Acinetobacter baumannii ATCC 17978
[22] = test system: Staphylococcus aureus ATCC 9144
[23] = test system: Staphylococcus aureus NCTC 13616
Escherichia coli LEC001 = test system: Escherichia coli LEC001
Staphylococcus aureus = test system: Staphylococcus aureus
Escherichia coli = test system: Escherichia coli
[24] = test system: Acinetobacter baumannii AYE
[25] = test system: Escherichia coli NCTC 12923
Klebsiella pneumoniae M6 = test system: Klebsiella pneumoniae M6
[26] = test system: Staphylococcus aureus USA 300
Escherichia coli HB101 = test system: Escherichia coli HB101
[27] = test system: Vibrio anguillarum FT1801
[28] = test system: Corynebacterium glutamicum ATCC 13032

MIC (Saccharomyces cerevisiae): 8 µM and 12 µM | MIC [1]: 10 µM (≈ 13.8 µg/mL) | MIC [2]: 16 µM and 25 µM | MIC [3]: 1.56 µM (≈ 2.16 µg/mL) | MIC [4]: 3 µM (≈ 4.15 µg/mL) | MIC [5]: 11 µM (≈ 15.1 µg/mL) | MIC [6]: 6 µM (≈ 8.29 µg/mL) | MIC (Listeria ivanovii): 6 µM (≈ 8.29 µg/mL) | MIC [7]: 6 µM (≈ 8.29 µg/mL) | MIC [8]: 1.56 µM (≈ 2.16 µg/mL) | MIC (Escherichia coli ML-35p): 12 µM (≈ 16.6 µg/mL) | MIC (Helicobacter pylori): 17.7 µM (≈ 24.4 µg/mL) | MIC [9]: 6 µM (≈ 8.29 µg/mL) | MIC [10]: 25 µM (≈ 34.5 µg/mL) | MIC (Bacillus megaterium): 2 µM (≈ 2.76 µg/mL) | MIC [11]: 6 µM (≈ 8.29 µg/mL) | MIC [12]: 3.12 µM (≈ 4.31 µg/mL) | MIC [13]: 10 µM (≈ 13.8 µg/mL) | MIC [14]: 31 µM and 50 µM | MIC [15]: 12 µM (≈ 16.6 µg/mL) | MIC [16]: 6 µM (≈ 8.29 µg/mL) | MIC [17]: 1.56 µM (≈ 2.16 µg/mL)
SMILES: CC[C@H](C)[C@H](NC(=O)CNC(=O)[C@H](CO)NC(=O)[C@H](CC(C)C)NC(=O)[C@@H](N)Cc1ccccc1)C(=O)N[C@H](C(=O)NCC(=O)N[C@@H](CCSC)C(=O)N[C@@H](CC(C)C)C(=O)NCC(=O)N[C@@H](CCCCN)C(=O)N[C@@H](CC(C)C)C(=O)N[C@@H](Cc1ccccc1)C(=O)O)C(C)C [FLSGIVGMLGKLF]

MIC [18]: 24.5 µM (≈ 64 µg/mL) | MIC [19]: > 49 µM | MIC [20]: 12.2 µM (≈ 32 µg/mL) | MIC [21]: 1.53 µM (≈ 4 µg/mL) | MIC [22]: 1.53 µM (≈ 4 µg/mL) | MIC [23]: 1.53 µM (≈ 4 µg/mL) | MIC (Escherichia coli LEC001): 3.06 µM (≈ 8 µg/mL) | MIC (Staphylococcus aureus): 6 µM (≈ 15.7 µg/mL) | MIC (Escherichia coli): 12.5 µM (≈ 32.7 µg/mL) | MIC [24]: 3.06 µM (≈ 8 µg/mL) | MIC [25]: 3.06 µM (≈ 8 µg/mL) | MIC (Klebsiella pneumoniae M6): 12.2 µM (≈ 32 µg/mL) | MIC [26]: 3.06 µM (≈ 8 µg/mL)
SMILES: CC[C@H](C)[C@H](NC(=O)[C@H](CCCCN)NC(=O)[C@H](CC(C)C)NC(=O)[C@H](C)NC(=O)[C@H](C)NC(=O)[C@H](CCCCN)NC(=O)[C@H](CC(C)C)NC(=O)[C@H](C)NC(=O)[C@H](CCCCN)NC(=O)CNC(=O)[C@H](CC(C)C)NC(=O)[C@H](Cc1ccccc1)NC(=O)[C@H](CO)NC(=O)CNC(=O)[C@H](Cc1ccccc1)NC(=O)CN)C(=O)NCC(=O)N[C@@H](C)C(=O)N[C@@H](CC(N)=O)C(=O)N[C@H](C(=O)N[C@@H](CC(C)C)C(=O)NCC(=O)NCC(=O)N[C@@H](C)C(=O)N1CCC[C@H]1C(=O)N[C@@H](CCC(N)=O)C(=O)N[C@@H](CCC(N)=O)C(=O)O)C(C)C [GFGSFLGKALKAALKIGANVLGGAPQQ]

MIC [22]: ≥ 50 µM | MIC (Escherichia coli HB101): 6.25 µM (≈ 27.2 µg/mL) | MIC [27]: 6.3 µM (≈ 27.4 µg/mL) | MIC [13]: 12.5 µM (≈ 54.3 µg/mL) | MIC [14]: 6.3 µM (≈ 27.4 µg/mL) | MIC [28]: 0.8 µM (≈ 3.48 µg/mL)
SMILES: CC[C@H](C)[C@H](NC(=O)[C@@H]1CCCN1C(=O)[C@H](CCCCN)NC(=O)[C@@H]1CCCN1C(=O)[C@H](CCCN=C(N)N)NC(=O)CNC(=O)[C@@H]1CCCN1C(=O)[C@H](Cc1ccccc1)NC(=O)[C@@H]1CCCN1C(=O)[C@H](CCCN=C(N)N)NC(=O)[C@@H]1CCCN1C(=O)[C@H](CCCN=C(N)N)NC(=O)CNC(=O)[C@@H]1CCCN1C(=O)[C@H](CO)NC(=O)[C@@H]1CCCN1C(=O)[C@H](Cc1c[nH]c2ccccc12)NC(=O)[C@H](CCCN=C(N)N)NC(=O)[C@@H](N)CO)C(=O)N[C@@H](Cc1ccccc1)C(=O)N[C@@H](CCCN=C(N)N)C(=O)N1CCC[C@H]1C(=O)N[C@@H](CCCN=C(N)N)C(=O)N1CCC[C@H]1C(=O)N[C@H]1CSSC[C@@H](C(=O)N[C@@H](CC(=O)O)C(=O)N[C@@H](CCCN=C(N)N)C(=O)N[C@@H](Cc2c[nH]c3ccccc23)C(=O)O)NC(=O)[C@@H]2CCCN2C(=O)[C@@H]2CSSC[C@H](NC(=O)[C@H](CC(N)=O)NC1=O)C(=O)N[C@@H](Cc1ccc(O)cc1)C(=O)N[C@@H](C)C(=O)N1CCC[C@H]1C(=O)N1CCC[C@H]1C(=O)N2 [SRWPSPGRPRPFPGRPKPIFRPRPCNCYAPPCPCDRW]
